# Where two headings read alike, the source gives them in different places. No end group written: not given here.
# Columns and labels:
# [1] = system: E. coli ATCC 25922; experiment: microbe, parasite or virus in culture; type: cell-based, Escherichia coli; details: for MIC: read-out: MIC
# Method: […] Each peptide, diluted at a starting concentration of 128 μM in supplemented M9 medium was added to the first column of wells of a 96-well round-bottom microplate (Sarstedt, Milan, Italy). Serially two-fold dilution (1:1) were performed across subsequent wells to a final volume of 50 μL. 50 μL of bacterial suspension (1 × 10^7 CFU/mL) were then added to each well, to a final bacterial concentration in each well to 5 × 10^6 CFU/mL per well. Untreated bacterial culture was used as growth control, while 100 μL of uninoculated supplemented M9 medium was used to verify the sterility of the medium. The plates were sealed with parafilm to minimize evaporation and incubated at 37 °C for 18 h. The minimum inhibitory concentration (MIC) was visually determined as the lowest peptide concentration in a well with no visible bacterial growth. Data are reported as the mode of at least three independent experiments.
# [2] = system: E. coli ATCC 25922; experiment: Post-antibiotic effect (PAE), growth kinetics after washout; type: cell-based, Escherichia coli; details: 30 min treatment at MIC
# Method: An overnight culture of E. coli ATCC 25922, prepared as described above, was diluted to a final concentration of 5 × 10^6 CFU/mL and then incubated at 37 °C for 30 min in the presence or absence of each peptide or antibiotic at various concentrations, with a final volume of 1 mL. To measure the post-antibiotic effect (PAE) of antimicrobials, the compounds were removed from the supernatant by centrifugation (16,000 × g for 5 min) and bacteria were washed and resuspended in 1 mL of fresh supplemented MHB medium, to promote faster growth visible as increased absorbance. 200 μL of each sample was then transferred to a 96-well round-bottom microplate (Sarstedt, Milan, Italy), which was then placed in a Nanoquant Infinite-M200Pro plate reader with stable temperature at 37 °C. Each sample was surrounded by water-filled wells to reduce its own evaporation. Optical density at 600 nm was then recorded for each sample every hour for up to 18 h. PAE was calculated according to [Holfeld et al. (2018)] as the difference between the time needed for a cell culture incubated with an antibiotic substance to reach half-maximum absorbance of the control culture and the time that the control culture needed to reach half-maximum absorbance of the stationary phase. According to this definition, the PAE of each compound (expressed as time) was calculated based on the OD₆₀₀ value of its respective replicate, which corresponded to half of the maximum absorbance reached by the control culture in the stationary phase (at 18 h). The mean PAE values (PAE in hours) of each compound, were obtained by averaging the times from the three independent experiments.
# [3] = system: E. coli ATCC 25922; experiment: Cell membrane permeabilization, propidium iodide flow cytometry; type: cell-based, Escherichia coli; details: compound at its MIC, 40 min, 5 × 10^6 CFU/mL, supplemented M9, mean of n = 3
# Method: (§1) Membrane permeabilization of bacteria was then assessed by incubating bacteria at 37 °C, in a final volume of 1 mL, with varying concentrations of each peptide or antibiotic used for the BONCAT assay. 5 min before the ending of the selected incubation time (40 min), propidium iodide probe was added to the samples to a final concentration of 10 μg/mL before analysis using a flow cytometer. A positive control consisted of E. coli cells dehydrated with ethanol (as described above), while untreated cells were used as negative control. The fluorescence of untreated cells was used to establish the gating for positive PI-stained cells. Fixed bacterial cells, subjected to the click chemistry reaction to link the Alexa Fluor azide 488 probe, were analysed by flow cytometry and, among the gates-selected ones, only those that tested positive for Propidium Iodide, and thus permeabilized, were considered for the calculation of the mean fluorescence intensity (MFI) of the Alexa Fluor azide 488.
# (§2) Samples were analyzed by an Attune NxT® (ThermoFisher) equipped with a blue laser (488 nm) and photomultiplier tubes (PMTs) BL1 (525/50) and BL3 (695/40) to collect fluorescence. All parameters were set in logarithmic scale and the signals were recorded as Area. Forward scattering (FSC) was set to 300 mV, side scattering (SSC) to 350 mV and thresholds to 0.2 for FSC and 0.5 for SSC. The compensation matrix was performed according to the tool software. Hierarchical gates and acquisition flow rate (200 μL/min) were set to avoid coincident events. The files were saved as FCS 3.1 and analysed by FCS Express De Novo software v7. Flow cytometry data are presented as means ± SD from three independent experiments (n = 3).
# [4] = system: K. pneumoniae ATCC 700603; experiment: microbe, parasite or virus in culture; type: cell-based, Klebsiella pneumoniae; details: for MIC: 18 h, 37 °C, mode of at least three experiments; for MIC for K. pneumoniae relative to E. coli: supplemented M9, 5 × 10^6 cells/mL
# Method: […] […] Serially two-fold dilution (1:1) were performed across subsequent wells to a final volume of 50 μL. […] […] The plates were sealed with parafilm to minimize evaporation and incubated at 37 °C for 18 h. The minimum inhibitory concentration (MIC) was visually determined as the lowest peptide concentration in a well with no visible bacterial growth. Data are reported as the mode of at least three independent experiments.
# [5] = system: K. pneumoniae ATCC 700603; experiment: Cell membrane permeabilization, propidium iodide flow cytometry; type: cell-based, Klebsiella pneumoniae; details: compound at its MIC, 40 min, 5 × 10^6 CFU/mL, supplemented M9; mean of n = 3
# Method: as §1, with “An overnight culture of E. coli ATCC 25922, or of K. pneumoniae ATCC 700603, prepared as described above, was diluted to a final concentration of 5 × 10^6 CFU/mL and allowed to adjust for 30 min at 37 °C under shaking. Membrane” for “Membrane”
# as §2
# [6] = Escherichia coli, ATCC25922, 18 h, supplemented M9 medium, 5 × 10^6 CFU/mL, 18 h, 37 °C, visual, mode of at least three experiments
# [7] = OD600 every hour for 18 h in MHB, mean ± SD, n = 3
Molecule,"MIC ([1]; Escherichia coli, ATCC25922, 18 h, Mueller Hinton, 2,5x10^5 CFU/mL, 18 h, 37 °C, mode of at least three experiments) [µM]","MIC ([1]; Escherichia coli, ATCC25922, 18 h, Mueller Hinton, 5x10^6 CFU/mL, 18 h, 37 °C, mode of at least three experiments) [µM]","MIC [1, 6] [µM]","Fold increase in MIC on 20-fold increase in cell density ([1]; MHB, 5×10^6 vs 2,5×10^5 CFU/well)",PAE [2],"PAE [2, 7] [h]",Membrane permeabilization (% PI +cells) [3] [%],Membrane permeabilization (% PI +cells) ([3]; listed as Chloramphenicol) [%],Membrane permeabilization (% PI +cells) ([3]; listed as Rifampin) [%],"MIC ([4]; Klebsiella pneumoniae, ATCC700603, supplemented M9 medium, 5 × 10^6 CFU/mL, visual) [µM]",Membrane permeabilization (% PI +cells) [5] [%],"MIC ([1]; Mueller Hinton, 2,5x10^5 CFU/mL, 18 h, 37 °C, mode of at least three experiments) [µM]","MIC ([1]; Mueller Hinton, 5x10^6 CFU/mL, 18 h, 37 °C, mode of at least three experiments) [µM]","MIC ([1]; supplemented M9 medium, 5 × 10^6 CFU/mL, 18 h, 37 °C, visual, mode of at least three experiments) [µM]","MIC ([4]; Mueller Hinton, 2,5x10^5 CFU/mL) [µM]",MIC for K. pneumoniae relative to E. coli [4] [fold],"MIC ([4]; supplemented M9 medium, 5 × 10^6 CFU/mL, visual) [µM]","MIC ([1]; ATCC 25922, 18 h) [µM]"
"O=C(N[C@H](CO)[C@H](O)c1ccc([N+](=O)[O-])cc1)C(Cl)Cl [CHL, Chloramphenicol]",16,64,32,4-8 fold,about half an hour,0.6 ± 1.2,<1,0,,,,,,,,,,
"CO[C@H]1/C=C/O[C@@]2(C)Oc3c(C)c(O)c4c(O)c(c(/C=N/N5CCN(C)CC5)c(O)c4c3C2=O)NC(=O)/C(C)=C\C=C\[C@H](C)[C@H](O)[C@@H](C)[C@@H](O)[C@@H](C)[C@H](OC(C)=O)[C@@H]1C [RIF, Rifampicin]",,,2,,,1.6 ± 1.1,<1,,0,16,<1,,,,,,,
RRIRPRPPRLPRPRPR [Bac7(1–16)],,,,,,1.7 ± 0.9,<1,,,,<1,1,2,1,4,4,4,
RRIRPRPPRLPRPRPRPLPFPRPGPRPIPRPLPFP [Bac7(1–35)],,,,,3 h,2.9 ± 0.5,<1,,,,<1,,,,,4,,1

# From publication PMC12748266, “Testing antimicrobial peptides inhibiting protein synthesis in living E. coli and K. pneumoniae using bio-orthogonal non-canonical amino-acid tagging” (Frontiers in Microbiology, 2025)
